From paper PMC3293077, “Pharmacokinetics of high-dose oral thiamine hydrochloride in healthy subjects” (BMC Clinical Pharmacology, 2012)
Counter-ions that a name gives are not always drawn. Like-named read-outs stand apart in the source and are kept apart here.

Legend:
[1] = mean ± SD; for AUC0-10 hr: baseline-corrected
Method: Subjects participated in a randomized, double-blind, single-dose, 4-way crossover study with a minimum of 1 week elapsing between trials. The 4 treatment groups were:
Subjects fasted overnight except for water. […] After 1 hour they were administered the study medication. Additional blood specimens were obtained immediately prior to the study medication and at 0.5, 1, 1.5, 2, 3, 4, 5, 6, 8, and 10 hours after taking the study medication. Subjects received a standardized lunch after the 6-hour blood draw. All blood specimens were drawn in duplicate (for plasma and whole blood assays) in 3 mL lavender-top vacutainers® containing K2EDTA. They were immediately placed in an ice bath and protected from the light. One vacutainer® of each pair was centrifuged at 3000 RPM for 20 min at 4°C to separate the plasma. The plasma sample and whole blood sample were then frozen at -70°C.
Thiamine tablets each containing 100 mg of thiamine hydrochloride were used (Amneal Pharmaceuticals). These were placed intact into opaque capsules. Identical capsules containing sucrose tablets were used as placebo such that the same number of capsules were used for each trial.
Quest Diagnostics analyzed all specimens for total thiamine using HPLC [4]. At Quest Diagnostics, plasma was deproteinized and then incubated with acid phosphatase to convert thiamine phosphate esters to free thiamine. The free thiamine was then oxidized to thiochrome by the addition of alkaline potassium ferricyanide. Depending on the age of the column and the temperature of the room, thiochrome retention time varied from 2.5 to 3.0 min. The mixture was injected to a Supelco (Bellefonte, PA, USA) high-performance liquid chromatographic column (7.5 cm^3 4.6 mm, particle size […]) connected to a high-performance liquid chromatographic system using a Hitachi (Pleasant, CA, USA) pump, autosampler, and fluorescent detector (excitation wavelength 365 nm, emission wavelength 440 nm). The mobile phase was 75 mmol/L of potassium phosphate at pH 7.5 with 25% methanol. The flow rate was set at 1.0 mL/min. Through this process, the thiochrome was then separated from other interfering substances and then measured fluorometrically. The amount of total thiamine in an unknown sample is proportional to the amount of thiochrome formed. The limit of quantification is 7 nmol/L. The assay range is 7 to 450 nmol/L. Samples with values above this range were diluted. The coefficient of variation for both the plasma and whole blood thiamine assays was calculated from the data collected in this study.
The thiamine levels were corrected by subtracting the baseline value. The baseline value was calculated as the average of the -1-hour and 0-hour values. Net systemic exposure to thiamine in each subject in each trial was quantitated using the area under the whole blood or plasma concentration curve from time zero through 10 hours after dosage (AUC0-10 hr). This was calculated using the cubic splines method. The overall effect of treatment condition (thiamine dose) on AUC0-10 hr in blood and plasma was tested using analysis of variance (ANOVA) for repeated measures. This was followed by the Student-Newman-Keuls procedure, nonparametric form, for evaluating all pairwise comparisons of the mean AUC0-10 hr values for the dosage groups. The peak thiamine concentration (Cmax) and the time to peak thiamine concentration (Tmax) were also calculated. Finally, half-life (t1\2) values were calculated where the terminal phase appeared log-linear.

[2] = cited from earlier work
[3] = single oral doses 100, 500, 1500 mg, healthy subjects; study not designed to detect adverse events
Excerpt: Subjects participated in a randomized, double-blind, single-dose, 4-way crossover study with a minimum of 1 week elapsing between trials.

[4] = plasma, 100 mg oral single dose
[5] = plasma, 500 mg oral single dose
[6] = plasma, 1500 mg oral single dose
[7] = whole blood, 100 mg oral single dose
[8] = whole blood, 500 mg oral single dose
[9] = whole blood, 1500 mg oral single dose

Cc1ncc(C[n+]2csc(CCO)c2C)c(N)n1 [thiamine hydrochloride]
AUC0-10 hr [1, 4]: 177 ± 62 nmol·h/L | Cmax [1, 4]: 39 ± 13 nmol/L | AUC0-10 hr [1, 5]: 612 ± 257 nmol·h/L | Cmax [1, 5]: 113 ± 42 nmol/L | AUC0-10 hr [1, 6]: 2059 ± 1415 nmol·h/L | Cmax [1, 6]: 397 ± 250 nmol/L | AUC0-10 hr [1, 7]: 214 ± 69 nmol·h/L | Cmax [1, 7]: 40 ± 11 nmol/L | AUC0-10 hr [1, 8]: 623 ± 178 nmol·h/L | Cmax [1, 8]: 95 ± 27 nmol/L | AUC0-10 hr [1, 9]: 2046 ± 1222 nmol·h/L | Cmax [1, 9]: 385 ± 188 nmol/L | adverse effects ([2]; 1000 mg oral three times a day for 2 to 12 months, Alzheimer's disease): without any reports of adverse effects | side effects ([2]; titrated up to 8000 mg per day over 1 year, in 2 subjects at 7000 and 7500 mg per day): nausea and indigestion | side effects [3]: no side effects were reported
